Measurements from patent publication US8609695B2, “Methods of treating and/or suppressing insulin resistance” (Endorecherche, Inc., priority 1999, dated 2013).
Marks after values point to notes of the source that are not given here.

Assays:
ovariectomized rats = experiment: 20-day treatment with EM-652.HCl, body fat, body weight and energy balance (Example 3); format: in vivo, rat; settings: OVX rats, 20 days
Procedure: Eight to ten week-old female Sprague-Dawley rats (Crl:CD(SD)Br) (Charles River Laboratory, St-Constant, Canada) weighing approximately 200-225 g at the start of treatment were used. The animals were acclimatized to the environmental conditions (temperature: 22±3° C.; 10-h light-14-h dark cycles, lights on at 06:00 h) for 1 week before starting the experiment. The animals were housed individually in stainless steel cages of conventional design and were allowed free access to tap water and a high carbohydrate mixed diet composed of (g/100 g): Corn starch, 31.2; Dextrose, 31.2; Casein, 20.0; corn oil, 6.4; dl-Methionine, 0.3; Vitamine mix, 1.0; AIN-76 mineral mix, 4.9 and fiber, 5.0. The experiment was conducted in a Canadian Council on Animal Care approved facility in accordance with the CCAC Guide for Care and Use of Experimental Animals.
On day 1 of the study, the animals of the appropriate groups were bilaterally ovariectomized (OVX) under isoflurane anesthesia. […] The treatment with EM-652.HCl or vehicle alone (0.4% methylcellulose in water) was initiated on day 2 of the study. The compound or vehicle was given once daily by oral gavage in 0.5 ml/rat for 20 days. Body weights and food consumption were recorded every 2 days.
Approximately 24 hours after the last dosing, overnight fasted animals were anesthesized with ketamine-xylazine and blood drawn by cardiac puncture. The blood was collected as well as white and brown adipose tissues.
Body weight, food intake, and body gains in energy, fat, and protein were determined according to Deshaies et al, Am. J. Physiol., 1997; 273, E355-E362 (1997).
Lipoprotein lipase activities were determined according to Deshaies et al, Am. J. Physiol., 1997; 273, E355-E362 (1997).

[1] = test system: ovariectomized female rats; experiment: 20-day treatment with EM-652.HCl, estradiol and DHEA, body fat (Example 6); format: in vivo, Rattus norvegicus; settings: OVX rats
Source text: d) Diet: Certified Rodent feed (Lab Diet #5002, pellets) and tap water were provided ad libitum during the acclimation period. During the study period, the rats received an enriched carbonhydrate diet ad libitum. The enriched diet (diet #3) was composed of (g/100 g): Corn starch, 31.2; Dextrose, 31.2; Casein, 20.0; Corn oil, 6.4; dl-Methionine, 0.3; Vitamin mix, 1.0; AIN-76 mineral mix, 4.9; Fiber, 5.0.
80 rats were assigned to 8 groups of 10 rats for the conduct of the study outlined below:
On day 0 of the study, rats from groups 2 to 8 were ovariectomized, by bilateral flank incision, under Isoflurane-induced anesthesia. Rats from group 1 were sham-operated.
The administration of the test articles or vehicle began on Day 1 (the day following the ovariectomy). The tested compounds were given as suspensions in 0.4% methylcellulose by oral gavage (0.5 ml/gavage) for 20 days.
On day 21 of the study (prior to the necropsy), body composition was determined on whole body skeleton of animals under Isoflurane-induced anesthesia using dual energy x-ray absorptiometry (DEXA; QDR 4500A, Hologic) in order to determine the effect of treatments on fat percentage.
Right and left retroperitoneal adipose tissue were collected and weighed.

[2] = test system: ovariectomized female rats; experiment: SERM comparison, energy balance and lipid-lipoprotein metabolism (Example 10); format: in vivo, Rattus norvegicus; settings: OVX rats, 20 days
Procedure: For this purpose, tested compounds were administered by oral gavage for 20 days (0.5 mg/rat for each compound; 0.5 ml/rat) in 0.4% methylcellulose to ovariectomized female rats.
d) Diet: • During acclimation period, rats received a certified rodent diet (Lab Diet #5002, pellet) and tap water ad libitum while during study period, they received a high carbonhydrate diet (diet #3) and tap water ad libitum. The diet was composed of (g/100 g): Corn starch, 31.2; Dextrose, 31.2; Casein, 20.0; corn oil, 6.4; dl-Methionine, 0.3; Vitamine mix, 1.0; AIN-76 mineral mix, 4.9; fiber, 5.0. Rats were fasted (with access to water only) around 07 h00 the morning of their necropsy Randomization:
Test group: Seventy-seven rats were assigned to 8 groups of 9-10 rats for conduct of the study outlined below.
On day 0 of the study, rats from group 2 to 8 were ovariectomized (by bilateral flank incision) under Isoflurane anesthesia. Rats from group 1 were sham-operated.
Rats were weighed on day 0 (surgery) and then, every 2 days during study period as well as on the day of necropsy.
Food consumption was evaluated every 2 days.
In order to determine the effect of treatments on fat percentage, body composition was measured on Day 17 of the study using dual energy x-ray absorptiometry (DEXA; QDR 4500A, Hologic, Waltham, Mass.).
On day 21 of the study, approximately 24 hours after the last dosing and 6 hours of fasting, animals under Ketamine-Xylazine anesthesia were killed by exsanguination at the abdominal aorta.
Blood lipids (Total cholesterol and Triglycerides) and glucose were measured on frozen serum samples using the Boehringer Mannheim Diagnostic Hitachi 911 Analyzer (Boehringer Mannheim Diagnostic Laboratory Systems). Circulating hormones and substrates (Insulin and leptin) were measured on serum sample using the following kits: • Insulin: Linco RIA kit • Leptin: Linco RIA kit Organs and Tissues Collected
The following tissues were collected and weighed: • Muscle (right soleus and right VLM), fat (right retroperitoneal and right inguinal), and brown adipose tissue.
A piece of ˜0.1 g of all tissues (except uterus and vagina) were frozen in liquid nitrogen and kept at −80 C for later determination of lipoprotein-lipase (LPL) activity.

ovariectomized rat = experiment: 35-week treatment, total body fat and body weight of ovariectomized rat (Example 1); format: in vivo; settings: OVX rats; for Body Weight at Necropsy: 37 weeks
Procedure: The animals were housed three per cage and were allowed free access to tap water and a pelleted certified rodent feed (Lab Diet 5002, Ralston Purina, St-Louis, Mo.). The experiment was conducted in a Canadian Council on Animal Care approved facility in accordance with the CCAC Guide for Care and Use of Experimental Animals. […] The appropriate compound or vehicle alone was given once daily by oral gavage in 0.5 ml/rat for 37 weeks. Approximately 24 hours after the last dosing, overnight fasted animals were killed by exsanguination at the abdominal aorta under isoflurane anesthesia. After 35 weeks of treatment, individual rats under anesthesia with isoflurane had their whole body skeleton as well as their right femur scanned using dual energy x-ray absorptiometry (DEXA; QDR 4500A, Hologic, Waltham, Mass.) and a Regional High Resolution Scan software. The scan field size used for the whole body was 30.492×17.912 cm, the resolution was 0.1512×0.0640 cm and the scan speed was 2.499 mm/sec. The fat body composition of the whole body was determined. Data are expressed as the means±SEM. Statistical significance was determined according to the multiple-range test of Duncan-Kramer (1956).

[3] = test system: ovariectomized female rats; experiment: 34-week treatment with ethynyl estradiol, EM-652.HCl, Raloxifene and DHEA, body fat (Example 7); format: in vivo, rat; settings: OVX rats, 34 weeks
Procedure: The objective of this study was to assess the effect of a combined treatment with EM-652.HCl, and DHEA on body fat and body weight parameters in ovariectomized rats. For this purpose, ovariectomized rats received daily administration of EM-652.HCl (1 mg/kg), and DHEA (80 mg/kg) alone or in combination, for 34 weeks. EM-652.HCl was administered orally while DHEA was applied topically on dorsal skin. One group of animals was orally treated with 17-ethynylestradiol (0.1 mg/kg) and Raloxifene (EM-1105; 1 mg/kg) for comparison.
Ten to twelve week-old female Sprague-Dawley rats (Crl:CD(SD)Br) weighing approximately 235-250 g at start of treatment were used. Eighty rats were randomly distributed between 7 groups of 11 to 12 animals per group as follows: 1) Intact control; 2) OVX control; 3) OVX+EE2 (0.1 mg/kg); 4) OVX+raloxifene (1 mg/kg); 5) OVX+EM-652.HCl (1 mg/kg); 6) OVX+DHEA (80 mg/kg); 7) OVX+EM-652.HCl+DHEA. On day 1 of the study, the animals of the appropriate groups were bilaterally ovariectomized (OVX) under isoflurane anesthesia. EM-652.HCl, raloxifene and EE2 (Steraloids) were administered once daily by oral gavage as suspension in 0.4% methylcellulose (0.5 ml/rat) for 34 weeks while DHEA was applied topically once daily on dorsal skin as a solution in 50% ethanol-50% propylene glycol (0.5 ml/rat) for the same time period. Approximately 24 hours after the last dosing, overnight fasted animals were killed by exsanguination at the abdominal aorta under isoflurane anesthesia. Left and right retroperitoneal adipose tissues were collected and weighed.
After 34 weeks of treatment, individual rats under anesthesia with isoflurane had their whole body skeleton scanned using dual energy x-ray absorptiometry (DEXA; QDR 4500A, Hologic, Waltham, Mass.) and a Regional High Resolution Scan software. The body composition (including fat percentage) was determined.
Data were expressed as the means±SEM.

[4] = EM-652.HCl 0.5 mg/rat oral once daily, E2 implant
[5] = high carbohydrate diet, 0.5 mg/rat oral gavage
[6] = EE2 0.1, Raloxifene 1, EM-652.HCl 1 mg/kg oral, DHEA 80 mg/kg topical

Row | Structure (SMILES) | Brown adipose tissue Lipoprotein lipase activity [2, 5] [μU/g protein] | Brown adipose tissue weight [2, 5] [g] | Cumulative food intake [2, 5] [g] | Serum glucose [2, 5] [mmol/L] | Serum insulin [2, 5] [nmol/L] | Serum leptin [2, 5] [ng/mL] | Serum total cholesterol [2, 5] [mmol/L] | Serum triglycerides [2, 5] [mmol/L] | Soleus muscle Lipoprotein lipase activity [2, 5] [μU/g protein] | Soleus muscle weight [2, 5] [g] | Total weight [2, 5] [g] | VastusLateralis muscle weight [2, 5] [g] | White adipose tissue inguinal Lipoprotein lipase activity [2, 5] [μU/g protein] | White adipose tissue inguinal weight [2, 5] [g] | White adipose tissue retroperitoneal Lipoprotein lipase activity [2, 5] [μU/g protein] | Body Weight at Necropsy (ovariectomized rat; 0.01 mg/kg orally once daily) [g] | Body Weight at Necropsy (ovariectomized rat; 0.03 mg/kg orally once daily) [g] | Body Weight at Necropsy (ovariectomized rat; 0.1 mg/kg orally once daily) [g] | Body Weight at Necropsy (ovariectomized rat; 0.3 mg/kg orally once daily) [g] | Body Weight at Necropsy (ovariectomized rat; 1 mg/kg orally once daily) [g] | also measured
1 | C[C@]12CC[C@@H]3c4ccc(O)cc4CC[C@H]3[C@@H]1CC[C@@H]2O [E2, estradiol] | 1198 ± 62 | 0.211 ± 0.021 | 255 ± 9 | 11.8 ± 1.4 | 0.070 ± 0.007 | 0.309 ± 0.097 | 2.03 ± 0.15 | 0.43 ± 0.04 | 10.9 ± 2.0 | 0.086 ± 0.003 | 198 ± 4 | 0.718 ± 0.026 | 416 ± 74 | 0.158 ± 0.019 | 1442 ± 243 |  |  |  |  |  | total energy intake, higher than that of intact animals (ovariectomized rats): 17%; Digestible energy intake (ovariectomized rats; [4]): 5511^a kJ; Enegery gain (ovariectomized rats; [4]): 903 kJ; Apparent energy (expenditure) (ovariectomized rats; calculated from energy intake and energy gain): 4609^a kJ; decrease of body fat ([1]; 20 days): 46%; decrease of retroperitoneal adipose tissue ([1]; 20 days): 78%; Retroperitoneal adipose tissue ([1]; enriched carbohydrate diet, 20 days oral, EM-652.HCl 0.5, E2 0.5, DHEA 100 mg/rat): 0.81 ± 0.17 g; Fat % ([1]; enriched carbohydrate diet, 20 days oral, EM-652.HCl 0.5, E2 0.5, DHEA 100 mg/rat, DEXA day 21): 10.3 ± 0.6%
2 | CC1=C(c2ccc(OC(=O)C(C)(C)C)cc2)[C@H](c2ccc(OCCN3CCCCC3)cc2)Oc2cc(OC(=O)C(C)(C)C)ccc21 [EM-800] |  |  |  |  |  |  |  |  |  |  |  |  |  |  |  | 385 ± 17 | 364 ± 10 | 369 ± 17 | 359 ± 7 | 368 ± 6 | decrease of the OVX-induced stimulation of body fat (DEXA) (ovariectomized rat; 0.01 mg/kg orally once daily, 35 weeks, FIG. 1): 78%
3 | Cl.O=C(c1ccc(OCCN2CCCCC2)cc1)c1c(-c2ccc(O)cc2)sc2cc(O)ccc12 [Raloxifene] | 960 ± 116 | 0.307 ± 0.26 | 307 ± 8 | 13.8 ± 1.2 | 0.077 ± 0.10 | 1.39 ± 0.30 | 1.19 ± 0.08 | 1.20 ± 0.35 | 10.2 ± 2.0 | 0.099 ± 0.003 | 230 ± 3 | 0.795 ± 0.055 | 579 ± 46 | 0.245 ± 0.047 | 1510 ± 52 | 439 ± 13 | 451 ± 14 | 389 ± 14 | 367 ± 9 | 342 ± 12 | increment of body fat and retroperitoneal adipose tissue by ovariectomy [3]: prevented; Fat % ([3]; DEXA, EE2 0.1, Raloxifene 1, EM-652.HCl 1 mg/kg oral, DHEA 80 mg/kg topical): 22.8 ± 1.6%; Left retroperitoneal adipose tissue [3, 6]: 1.41 ± 0.13 g; Right retroperitoneal adipose tissue [3, 6]: 1.29 ± 0.12 g; Serum insulin (in words) ([2]; 0.5 mg/rat): decreased; White adipose tissue retroperitoneal weight [2, 5]: 1.32 ± 0.24 g; effect on body fat (DEXA) (ovariectomized rat; 0.01-1 mg/kg orally once daily, 35 weeks, FIG. 1): less active than EM-800
